Results: patent US20220195059A1, “Rank Pathway Inhibitors in Combination with CDK Inhibitors” (INSTITUTO DE MEDICINA MOLECULAR JOÃO LOBO ANTUNES, priority 2019, published 2022)

Legend:
Type in all cases: cell-based, human
[1] = test system: RANK OE cells (MCF-7^OE, T47D^OE) and parental MCF-7, T47D cells; test: Alamar blue viability assay, RANK OE luminal breast cancer cells vs parental counterparts; conditions: for sensitivity of RANK OE cells to the drug (cell viability): RANK OE cells vs parental counterparts, drug alone
Description: (§1) Cells were seeded in 96 well-plates (2-5×10^4 cells/mL), with or without paclitaxel (Y0000698, Sigma), doxorubicin hydrochloride (D2975000, Sigma), palbociclib (PD 0332991 isethionate, PZ0199, Sigma), ribociclib (LEE011 succinate, SC-488174, Santa Cruz), abemaciclib mesylate (LY2835219, S7158, Selleckchem), fulvestrant (S1191, Selleckchem), everolimus (#73122, StemCell Technologies), full length human OPG (SRP3132, Sigma), and OPG-Fc (Amgen). Medium was replaced every 2 days. After 7 days, 1:10 Alamar blue (Invitrogen) was added to each well and fluorescence was measured 2 hours after incubation (excitation 560 nm; emission 590 nm) in an Infinite M200 microplate reader (Tecan).
In particular, RANK OE cells were tested for responsiveness to hormone therapy. Briefly, RANK OE cells were seeded in multi-well plates and exposed to fulvestrant for 7 days.
In this assay, however, RANK OE cells were exposed to a CDK 4/6 inhibitor alone or in combination with an inhibitor of the RANK pathway, in order to test the effect of blocking the RANK pathway in this context. Briefly, RANK OE cells were seeded in multi-well plates and exposed to palbociclib, ribociclib or abemaciclib alone or in combination with OPG-Fc for 7 days. Osteoprotegrin (OPG) is the physiologic soluble decoy receptor for RANK ligand (RANKL), and OPG-Fc is a fusion protein comprising only the four cysteine-rich domains of OPG (D1 to D4) fused with the Fc domain of an IgG1 antibody.
In this study, the CDK4/6 inhibitors palbociclib and ribociclib were exposed to RANK OE cells in combination with fulvestrant or everolimus. This combination therapy was then tested alone or in combination with OPG, an inhibitor of the RANK pathway. In this assay, the full-length OPG protein was used, in contrast to the previous example utilizing OPG-Fc.
To address this question, cell growth in the presence or absence of a CDK4 inhibitor was quantified. Briefly, cells were seeded in 96-well plates and exposed to two different drugs, CDK4 inhibitors, 3-ATA (FIG. 20A) or Cdk4 inhibitor Ill (FIG. 20B) for seven days. Medium was replaced every two days, and viability was assessed by Alamar blue assay. FIG. 20A provides the cell growth quantification in the presence of the CDK4 inhibitor 3-ATA and FIG. 20B provides the cell growth quantification in the presence of another CDK4 inhibitor, Cdk4 Inhibitor Ill. The results are the mean of at least three independent assays, with 4 replicates per assay, and presented as the mean±SEM. p-value was calculated using 2-way ANOVA, *p<0.05, **p<0.01, ***p<0.001.
To answer this question, cell growth in the presence of the pan-CDK inhibitor seliciclib (also known as roscovitine or CYC202) was analyzed. Briefly, cells were seeded in 96-well plates and exposed to different drugs for seven days. Medium was replaced every two days, and viability was assessed by Alamar blue assay.
(§2) Cells were seeded in 96 well-plates (2-5×10^4 cells/mL), with or without palbociclib (PD 0332991 isethionate, PZ0199, Sigma), ribociclib (LEE011 succinate, SC-488174, Santa Cruz), abemaciclib mesylate (LY2835219, S7158, Selleckchem), 3-ATA (sc-202414, Santa Cruz), Cdk4 inhibitor Ill (sc-202988, Santa Cruz), seliciclib (S1153, Selleckchem), and OPG-Fc (PL-33324, Amgen). Medium was replaced every 2 days. After 7 days, 1:10 Alamar blue (Invitrogen) was added to each well and fluorescence was measured 2 hours after incubation (excitation 560 nm; emission 590 nm) in an Infinite M200 microplate reader (Tecan).

[2] = test system: TNBC cells (MDA-MB-231, MDA-MB-436, MDA-MB-468, MDA-MB-157, HCC1937, BT-20); test: Alamar blue viability assay, TNBC cell lines with or without OPG-Fc; conditions: 7 days
Description: as §1
Medium was replaced every two days, and viability was assessed by Alamar blue assay.
as §2

MDA-MB-231 TNBC cells = test: Alamar blue viability assay, MDA-MB-231 TNBC cells with or without RANK knockdown; conditions: 7 days
Description: For lentiviral transduction, MDA-MB-231GFP+Luc+ cells were seeded in 24-well plates, at a density of 4×10^4 cells/well. 24 hours after seeding, medium was replaced by fresh medium containing 8 μg/ml Polybrene (Sigma) and RANK shRNA (h) lentiviral particles (15-20 μl/well; sc-42960-V, Santa Cruz) or control shRNA lentiviral particles (15-20 μl/well; sc-108080, Santa Cruz). Cells were selected with 0.5 μg/mL Puromycin dihydrochloride (Sigma) starting three days after transduction.
as §1
RANK KD clones were first generated for use in sensitivity assays. Briefly, MCF-7GFP+Luc+ cells were seeded in multi-well plates and then exposed to fresh medium comprising RANK shRNA (h) lentiviral particles or control shRNA lentiviral particles. The transduced cells were selected using Puromycin dihydrochloride starting three days post-transduction.

Nc1ccc2c(=S)c3ccccc3[nH]c2c1 [3-ATA, 3-Amino-9-thio(10H)-acridone]
sensitivity of RANK OE cells to the drug (cell viability) ([1]; 7 days): resistant | resistance of RANK OE cells to doses above 2.5 μM ([1]; RANK OE cells, 7 days): resistant to even higher doses

Cc1ccc(NC2=CC(=O)c3sc(C)nc3C2=O)cc1 [Cdk4 inhibitor Ill, 5-(N-(4-Methylphenyl)amino)-2-methyl-4,7-dioxobenzothiazole]
sensitivity of RANK OE cells to the drug (cell viability) ([1]; 7 days): resistant

CCN1CCN(Cc2ccc(Nc3ncc(F)c(-c4cc(F)c5nc(C)n(C(C)C)c5c4)n3)nc2)CC1 [abemaciclib]
sensitivity of RANK OE cells to the drug (cell viability) ([1]; 7 days): decreased sensitivity | sensitivity of TNBC cells to CDK4/6 inhibitor (cell viability) [2]: resistance

C[C@]12CC[C@@H]3c4ccc(O)cc4C[C@@H](CCCCCCCCC[S+]([O-])CCCC(F)(F)C(F)(F)F)[C@H]3[C@@H]1CC[C@@H]2O (stereo partly shown) [fulvestrant]
sensitivity of RANK OE cells to the drug (cell viability) ([1]; 7 days): decreased sensitivity

CN(C)C(=O)c1cc2cnc(Nc3ccc(N4CCNCC4)cn3)nc2n1C1CCCC1 [ribociclib]
sensitivity to CDK4/6 inhibitor (cell viability) (MDA-MB-231 TNBC cells; MDA-231 cells and MDA-231 shControl cells): resistance | sensitivity to CDK4/6 inhibitor (cell viability) (MDA-MB-231 TNBC cells; TNBC RANK KD cells (MDA-231 shRANK) vs RANK expressing cells): restored sensitivity | sensitivity of RANK OE cells to the drug (cell viability) ([1]; 7 days): decreased sensitivity | sensitivity of TNBC cells to CDK4/6 inhibitor (cell viability) [2]: resistance

CC[C@H](CO)Nc1nc(NCc2ccccc2)c2ncn(C(C)C)c2n1 [seliciclib]
sensitivity of RANK OE cells to pan-CDK inhibitor ([1]; RANK OE cells vs parental (RANK low) cells, 7 days): less sensitive | enhancement of the effect of palbociclib, or palbociclib plus OPG-Fc ([1]; RANK OE cells, 7 days): did not enhance

B1: OPG: full-length OPG protein, soluble decoy receptor for RANK ligand (protein, UniProt O00300 1-401, looked up)
chain: MNNLLCCALVFLDISIKWTTQETFPPKYLHYDEETSHQLLCDKCPPGTYLKQHCTAKWKTVCAPCPDHYYTDSWHTSDECLYCSPVCKELQYVKQECNRTHNRVCECKEGRYLEIEFCLKHRSCPPGFGVVQAGTPERNTVCKRCPDGFFSNETSSKAPCRKHTNCSVFGLLLTQKGNATHDNICSGNSESTQKCGIDVTLCEEAFFRFAVPTKFTPNWLSVLVDNLPGTKVNAESVERIKRQHSSQEQTFQLLKLWKHQNKDQDIVKKIIQDIDLCENSVQRHIGHANLTFEQLRSLMESLPGKKVGAEDIEKTIKACKPSDQILKLLSLWRIKNGDQDTLKGLMHALKHSKTYHFPKTVTQSLKKTIRFLHSFTMYKLYQKLFLEMIGNQVQSVKISCL
modifications: full-length
notes: full-length OPG protein, soluble decoy receptor for RANK ligand
sensitivity of RANK OE cells to CDK4/6 inhibitor combination therapy when further combined with OPG ([1]; full-length OPG added to palbociclib or ribociclib plus fulvestrant or everolimus): restored
